Source: PubChem BioAssay (NCI)
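Tested at 5 concentrations; 48 h exposure; 96-well plates; endpoints linearly interpolated, else capped at highest concentration. At the TGI there is no net growth.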

Assays:
Assay in all cases: NCI anticancer screen, dose series, 48 h
[1] = test system: A498 renal
[2] = test system: CCRF-CEM leukemia
[3] = test system: COLO 205 colon
[4] = test system: HCT-116 colon
[5] = test system: HL-60(TB) leukemia
[6] = test system: HS 578T breast
[7] = test system: IGROV1 ovarian
[8] = test system: K-562 leukemia
[9] = test system: LOX IMVI melanoma
[10] = test system: MCF7 breast
[11] = test system: MDA-MB-435
[12] = test system: MDA-N
[13] = test system: NCI-H226 lung
[14] = test system: NCI-H460 lung
[15] = test system: OVCAR-3 ovarian
[16] = test system: OVCAR-4 ovarian
[17] = test system: OVCAR-8 ovarian
[18] = test system: SF-268 CNS
[19] = test system: SF-295 CNS
[20] = test system: SK-MEL-28 melanoma

SMILES | TGI [1] [µM] | TGI [2] [µM] | TGI [3] [µM] | TGI [4] [µM] | TGI [5] [µM] | TGI [6] [µM] | TGI [7] [µM] | TGI [8] [µM] | TGI [9] [µM] | TGI [10] [µM] | TGI [11] [µM] | TGI [12] [µM] | TGI [13] [µM] | TGI [14] [µM] | TGI [15] [µM] | TGI [16] [µM] | TGI [17] [µM] | TGI [18] [µM] | TGI [19] [µM] | TGI [20] [µM]
CCn1c(SCC(=O)NNC(=S)Nc2ccc([N+](=O)[O-])cc2)nc2ccccc2c1=O | > 100 | > 100 | > 100 | > 100 | > 100 | > 100 | > 100 | > 100 | > 100 | > 100 | > 100 | > 100 | > 100 | > 100 | > 100 | > 100 | > 100 | > 100 | > 100 | > 100
CC(=O)OCC1OC(c2nc3ccccc3s2)=CC(OC(C)=O)C1OC(C)=O (stereo not given) | > 100 | > 100 | > 100 | > 100 | > 100 | > 100 | > 100 | > 100 | > 100 | > 100 | > 100 | > 100 | > 100 | > 100 | > 100 | > 100 | > 100 | > 100 | > 100 | > 100
O=c1c2nc3ccccc3c(=O)n2ncn1-c1ccccc1Cl | > 100 | > 100 | > 100 | > 100 | > 100 | > 100 | > 100 | > 100 | > 100 | > 100 | > 100 | > 100 | > 100 | > 100 | > 100 | > 100 | > 100 | > 100 | > 100 | > 100
CCOC(=O)c1nc2ccccc2nc1NCc1cc(OC)c(OC)c(OC)c1 | 96.2 | > 100 | > 100 | > 100 | > 100 | > 100 | > 100 | > 100 | > 100 | > 100 | 71.8 | 51.8 | > 100 | > 100 | > 100 | > 100 | > 100 | > 100 | > 100 | > 100
Cn1c2ccc3cc2c(=S)c2cc(ccc21)OCCOCCOCCOCCOCCO3 | > 10 | > 10 | > 10 | > 10 | > 10 | > 10 | > 10 | > 10 | > 10 | > 10 | > 10 | > 10 | > 10 | > 10 | > 10 | > 10 | > 10 | > 10 | > 10 | > 10
Nc1ccc2c(SCc3ccc([N+](=O)[O-])cc3)c3ccccc3nc2c1 | 49.2 | 5.15 | 6.36 | 22.7 | 10.1 | 48 | 39.5 | 27.9 | 19.1 | 27.6 | 33.7 | 31.1 | 38.3 | 47.2 | 30.2 | 30.6 | 26.7 | 30.8 | 36.8 | 33.5
COc1cc2c(cc1OC)C(=O)/C(=C/c1ccc(Cl)cc1)CC2 | > 10 | > 10 | > 10 | > 10 | > 10 | > 10 | > 10 | > 10 | > 10 | > 10 | > 10 | > 10 | > 10 | > 10 | > 10 | > 10 | > 10 | > 10 | > 10 | > 10
Clc1cc(Cl)cc(C=NC23CC4CC(CC(C4)C2)C3)c1 | > 10 | > 10 | > 10 | > 10 | > 10 | > 10 | > 10 | > 10 | > 10 | > 10 | > 10 | > 10 | > 10 | > 10 | > 10 | > 10 | > 10 | > 10 | > 10 | > 10
C=CCC1(OC(C)=O)C2OC(=O)C1(O)OCC2O (stereo not given) | > 100 | > 100 | > 100 | > 100 | > 100 | > 100 | > 100 | > 100 | > 100 | > 100 | > 100 | > 100 | > 100 | > 100 | > 100 | > 100 | > 100 | > 100 | > 100 | > 100
